Among the data in US9834542B2, “LXR modulators” (BRISTOL-MYERS SQUIBB COMPANY, priority 2013, dated 2017) are EC50 and Emax values, retold here.

The target in the assay is T1, LXRβ (Homo sapiens, UniProt P55055).
T1 construct: Co-transfection expression plasmids, comprising full-length LXRα (pCMX-h LXRα[…] or LXRβ (pCMX-hLXRβ)); expressed in transfected cells; host or cells: CV-1 African Green Monkey Kidney Cells
T1 sequence (P55055 1-460): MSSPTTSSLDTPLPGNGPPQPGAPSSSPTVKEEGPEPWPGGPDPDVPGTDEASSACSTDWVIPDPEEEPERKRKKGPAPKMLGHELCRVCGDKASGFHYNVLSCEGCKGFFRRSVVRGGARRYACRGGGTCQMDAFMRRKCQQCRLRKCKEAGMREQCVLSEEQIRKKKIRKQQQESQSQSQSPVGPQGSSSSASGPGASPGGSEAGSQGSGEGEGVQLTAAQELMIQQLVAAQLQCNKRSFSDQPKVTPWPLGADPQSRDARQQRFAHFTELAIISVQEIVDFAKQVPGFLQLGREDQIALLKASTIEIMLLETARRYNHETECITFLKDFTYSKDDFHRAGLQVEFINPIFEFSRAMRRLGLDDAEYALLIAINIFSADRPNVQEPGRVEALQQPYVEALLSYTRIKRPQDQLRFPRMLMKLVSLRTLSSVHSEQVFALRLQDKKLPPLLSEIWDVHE
T1 sequence (P19793 1-462 partner): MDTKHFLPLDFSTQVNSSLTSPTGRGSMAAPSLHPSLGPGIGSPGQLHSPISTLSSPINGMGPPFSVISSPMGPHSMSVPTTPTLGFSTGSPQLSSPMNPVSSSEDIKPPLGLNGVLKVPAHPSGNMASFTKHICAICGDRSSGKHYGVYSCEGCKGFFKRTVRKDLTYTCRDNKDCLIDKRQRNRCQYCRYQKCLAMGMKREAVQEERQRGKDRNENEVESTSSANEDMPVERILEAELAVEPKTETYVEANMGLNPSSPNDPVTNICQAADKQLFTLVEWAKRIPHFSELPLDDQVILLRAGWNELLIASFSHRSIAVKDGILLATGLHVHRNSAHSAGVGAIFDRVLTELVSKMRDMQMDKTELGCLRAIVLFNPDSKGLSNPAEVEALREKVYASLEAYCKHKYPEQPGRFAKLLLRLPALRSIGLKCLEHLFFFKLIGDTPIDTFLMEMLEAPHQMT
The experiment in a line: Co-transfection assay (LXRE luciferase reporter), LXRβ. Format: cell-based. Particulars: for EC50: CV-1 cells transfected with pCMX-hLXRβ and LXREx1-Tk-Luciferase, 20 hours incubation; for Emax: LXRβ co-transfection, relative to high control 1-(2,4-difluorobenzyl)-2-oxo-6-(4-phenoxyphenyl)-4-(trifluoromethyl)-1,2-dihydropyridine-3-carbonitrile, read-out: % Efficacy. An outline of the steps:
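CV-1 / pCMX-hLXRβ + LXREx1-Tk-Luc + β-gal; cpd 20 h, 37 °C, ≤0.5% DMSO; Steady-Glo luminescence. 11-pt ½-log curves, duplicate wells, sigmoidal fit → EC50; % efficacy vs high-control agonist, DMSO low control; mean of ≥2 expts.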
In general terms: Reporter assays use an easily measured gene product as a stand-in for the process of interest.

For the molecule `Cc1nc(C(F)(F)F)cn1-c1ccc(-c2cccc(S(=O)(=O)N(C)C)c2)cc1-c1ocnc1-c1ccc(OC(F)(F)F)cc1` [Example 358, N,N-dimethyl-4′-[2-methyl-4-(trifluoromethyl)-1H-imidazol-1-yl]-3′-(4-{4-[(trifluoromethyl)oxy]phenyl}-1,3-oxazol-5-yl)biphenyl-3-sulfonamide], the EC50 (usually the concentration that produces a half-maximal response) amounted to 116 nM and the Emax stood at 87%.

For the molecule `CCC(F)(F)c1cn(-c2ccc(-c3cccc(S(C)(=O)=O)c3)cc2-n2nncc2-c2ccc(OC(F)(F)F)cc2)c(C)n1` [Example 184, 1-{4-[4-(1,1-difluoropropyl)-2-methyl-1H-imidazol-1-yl]-3′-(methylsulfonyl)biphenyl-3-yl}-5-{4-[(trifluoromethyl)oxy]phenyl}-1H-1,2,3-triazole], the EC50 amounted to 337 nM and the Emax was determined as 86%.

`Cc1nc(C(F)(F)F)cn1-c1ccc(-c2cc(F)c(CO)c(S(C)(=O)=O)c2)cc1-c1nc(C(F)(F)F)cn1-c1ccc2c(c1)OC(F)(F)O2` [Example 638, (3′-(1-(2,2-difluorobenzo[d][1,3]dioxol-5-yl)-4-(trifluoromethyl)-1H-imidazol-2-yl)-3-fluoro-4′-(2-methyl-4-(trifluoromethyl)-1H-imidazol-1-yl)-5-(methylsulfonyl)biphenyl-4-yl)methanol]: a half-maximal effect (EC50) was put at 143 nM and the Emax stood at 79%.

Consider `Cc1nc(-c2cc(-c3cc(F)c(CO)c(S(C)(=O)=O)c3)ccc2-n2cc(C(F)(F)F)nc2C)c(-c2ccc3c(c2)OC(F)(F)O3)o1` [Example 494, (3′-(5-(2,2-difluorobenzo[d][1,3]dioxol-5-yl)-2-methyloxazol-4-yl)-3-fluoro-4′-(2-methyl-4-(trifluoromethyl)-1H-imidazol-1-yl)-5-(methylsulfonyl)biphenyl-4-yl)methanol], for which the response was half-maximal at 47 nM (EC50) and the Emax turned out to be 90%.

Consider `Cc1nc(C(F)(F)F)cn1-c1ccc(-c2cc(F)c(CO)c(S(C)(=O)=O)c2)cc1-c1ccnn1-c1ccc(Cl)nc1` [Example 297, (3′-(1-(6-chloropyridin-3-yl)-1H-pyrazol-5-yl)-3-fluoro-4′-(2-methyl-4-(trifluoromethyl)-1H-imidazol-1-yl)-5-(methylsulfonyl)biphenyl-4-yl)methanol], for which the EC50 was 351 nM and the Emax turned out to be 75%.

In the case of `Cc1nc(-c2cc(-c3ccc(C)c(S(C)(=O)=O)c3)ccc2-n2cc(C(F)(F)F)nc2C)c(-c2ccc3c(c2)OC(F)(F)O3)o1` [Example 445, 5-(2,2-difluorobenzo[d][1,3]dioxol-5-yl)-2-methyl-4-(4′-methyl-4-(2-methyl-4-(trifluoromethyl)-1H-imidazol-1-yl)-3′-(methylsulfonyl)biphenyl-3-yl)oxazole], the EC50 was 36 nM and the Emax stood at 69%.

As for `Cc1nc(C(F)F)cn1-c1ccc(-c2cccc(S(C)(=O)=O)c2)cc1-c1cnnn1Cc1ccc(Cl)cc1` [Example 245, 1-(4-chlorobenzyl)-5-(4-(4-(difluoromethyl)-2-methyl-1H-imidazol-1-yl)-3′-(methylsulfonyl)-[1,1′-biphenyl]-3-yl)-1H-1,2,3-triazole], a half-maximal effect (EC50) was put at 216 nM and the Emax stood at 102%.

Take `Cc1nc(C(F)(F)F)cn1-c1cc(F)c(-c2cccc(S(C)(=O)=O)c2)cc1-n1nncc1-c1ccc(Cl)cc1Cl` [Example 101, 5-(2,4-dichlorophenyl)-1-{6-fluoro-3′-(methylsulfonyl)-4-[2-methyl-4-(trifluoromethyl)-1H-imidazol-1-yl]biphenyl-3-yl}-1H-1,2,3-triazole]: the EC50 was found to be 782 nM and the Emax is 73%.

For `CS(=O)(=O)c1cc(-c2cc(F)c(-n3cnc(C(F)(F)F)c3)c(-n3nncc3-c3ccc(OC(F)(F)F)cc3)c2)cc(F)c1CO` [Example 189, [3,3′-difluoro-5-(methylsulfonyl)-4′-[4-(trifluoromethyl)-1H-imidazol-1-yl]-5′-(5-{4-[(trifluoromethyl)oxy]phenyl}-1H-1,2,3-triazol-1-yl)biphenyl-4-yl]methanol], the EC50 worked out at 1790 nM and the Emax stood at 95%.
